Each structure is given as a SMILES string. pIC50: −log10 of the molar value. Active and inactive are the calls of the source. The calls are words filed in the database; no cut-off is given here. A value given as a limit tells only on which side of the number the result lay.

The record followed here is ChEMBL document CHEMBL5550160, “Leveraging a rationally designed veliparib-based anilide eliciting anti-leukemic effects for the design of pH-responsive polymer nanoformulation” (Eur J Med Chem, 2024).

Test [1] deals with MDA-MB-231. As to the kind of experiment: Antiproliferative activity against human MDA-MB-231 cells assessed as inhibition of cell growth by MTT assay. It is filed as functional, cell-based.
The target in test [2] is T1, Histone deacetylase 7 (Homo sapiens) (UniProt Q8WUI4).
T1 sequence (whole entry): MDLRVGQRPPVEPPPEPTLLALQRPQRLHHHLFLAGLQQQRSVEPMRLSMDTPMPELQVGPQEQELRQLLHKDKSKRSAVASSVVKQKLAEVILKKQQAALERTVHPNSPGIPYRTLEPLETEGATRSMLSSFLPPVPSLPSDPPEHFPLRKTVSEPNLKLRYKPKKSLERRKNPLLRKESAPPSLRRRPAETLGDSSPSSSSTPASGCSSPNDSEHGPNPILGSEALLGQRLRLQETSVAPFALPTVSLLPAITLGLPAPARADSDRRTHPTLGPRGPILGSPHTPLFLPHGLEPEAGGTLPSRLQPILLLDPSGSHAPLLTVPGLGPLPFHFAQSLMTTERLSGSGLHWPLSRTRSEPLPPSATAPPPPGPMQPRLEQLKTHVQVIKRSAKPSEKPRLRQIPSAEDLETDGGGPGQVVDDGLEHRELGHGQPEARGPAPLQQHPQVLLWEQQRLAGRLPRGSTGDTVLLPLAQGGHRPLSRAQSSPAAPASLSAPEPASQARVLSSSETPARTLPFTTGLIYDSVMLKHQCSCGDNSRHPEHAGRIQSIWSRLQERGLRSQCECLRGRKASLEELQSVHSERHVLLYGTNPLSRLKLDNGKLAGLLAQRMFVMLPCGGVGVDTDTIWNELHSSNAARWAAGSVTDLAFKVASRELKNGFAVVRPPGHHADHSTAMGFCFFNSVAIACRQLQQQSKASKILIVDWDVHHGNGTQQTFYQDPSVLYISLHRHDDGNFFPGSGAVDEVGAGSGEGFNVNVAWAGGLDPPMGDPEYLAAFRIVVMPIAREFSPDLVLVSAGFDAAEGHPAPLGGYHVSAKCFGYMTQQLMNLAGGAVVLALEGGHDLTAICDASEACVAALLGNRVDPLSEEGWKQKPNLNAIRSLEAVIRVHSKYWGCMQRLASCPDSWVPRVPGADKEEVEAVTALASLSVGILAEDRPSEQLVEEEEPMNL
As to the kind of experiment: Inhibition of HDAC7 (unknown origin) assessed as residual activity at 1 x 10^-5M (reference value: 102.66%).

Test [3] concerns the target T2, Protein deacetylase HDAC6 (Homo sapiens) (UniProt Q9UBN7).
T2 sequence (whole entry): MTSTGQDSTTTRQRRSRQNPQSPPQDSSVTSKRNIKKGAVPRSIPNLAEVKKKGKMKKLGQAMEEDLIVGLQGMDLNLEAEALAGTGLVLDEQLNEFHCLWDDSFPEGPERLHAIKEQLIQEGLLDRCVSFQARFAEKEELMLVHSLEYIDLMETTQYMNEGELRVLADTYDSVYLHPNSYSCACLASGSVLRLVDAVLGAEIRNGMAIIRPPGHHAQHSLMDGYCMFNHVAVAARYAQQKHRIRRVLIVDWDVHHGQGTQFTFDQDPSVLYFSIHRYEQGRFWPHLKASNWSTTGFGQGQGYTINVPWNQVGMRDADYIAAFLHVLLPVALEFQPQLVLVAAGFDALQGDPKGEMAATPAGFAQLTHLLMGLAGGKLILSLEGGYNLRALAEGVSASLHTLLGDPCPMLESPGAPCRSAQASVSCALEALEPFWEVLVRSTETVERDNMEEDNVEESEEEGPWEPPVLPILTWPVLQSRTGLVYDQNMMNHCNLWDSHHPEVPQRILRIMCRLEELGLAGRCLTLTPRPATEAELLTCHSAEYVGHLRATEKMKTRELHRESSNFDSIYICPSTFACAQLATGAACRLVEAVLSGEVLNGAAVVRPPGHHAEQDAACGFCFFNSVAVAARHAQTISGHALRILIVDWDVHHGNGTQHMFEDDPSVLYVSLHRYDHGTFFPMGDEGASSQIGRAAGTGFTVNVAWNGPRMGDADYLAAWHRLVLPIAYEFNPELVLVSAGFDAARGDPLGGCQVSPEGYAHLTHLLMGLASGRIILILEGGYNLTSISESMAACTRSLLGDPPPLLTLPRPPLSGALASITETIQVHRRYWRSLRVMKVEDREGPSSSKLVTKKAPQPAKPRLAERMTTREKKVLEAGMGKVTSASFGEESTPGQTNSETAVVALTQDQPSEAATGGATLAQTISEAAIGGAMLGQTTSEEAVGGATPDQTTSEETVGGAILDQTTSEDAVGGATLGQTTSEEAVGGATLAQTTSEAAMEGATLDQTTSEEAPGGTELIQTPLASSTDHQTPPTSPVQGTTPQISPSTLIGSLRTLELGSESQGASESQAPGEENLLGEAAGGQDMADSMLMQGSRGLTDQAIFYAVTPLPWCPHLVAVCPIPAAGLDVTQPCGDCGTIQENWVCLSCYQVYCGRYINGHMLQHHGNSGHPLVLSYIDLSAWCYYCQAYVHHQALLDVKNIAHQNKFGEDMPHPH
As to the kind of experiment: Inhibition of HDAC6 (unknown origin) using p53 residues 379 to 382 [RHKK(Ac)] as fluorogenic substrate assessed as residual activity at 5.08 x 10^-10M (reference value: 101.06%). To be noted: dose 5.08 10^-10M.

Test [4] deals with HL-60. As to the kind of experiment: Downregulation of PARP-2 protein expression in human HL-60 cells by Western blot analysis. It counts as functional, cell-based.
The target in test [5] is Histone deacetylase 1 (Homo sapiens, UniProt Q13547). As to the kind of experiment: Inhibition of HDAC1 (unknown origin) using p53 residues 379 to 382 [RHKK(Ac)] as fluorogenic substrate assessed as residual activity at 1.23 x 10^-7M (reference value: 98.06%). As to conditions: dose 1.23 10^-7M.
Histone deacetylase 1, sequence (Q13547 whole entry, the tested form may be a part): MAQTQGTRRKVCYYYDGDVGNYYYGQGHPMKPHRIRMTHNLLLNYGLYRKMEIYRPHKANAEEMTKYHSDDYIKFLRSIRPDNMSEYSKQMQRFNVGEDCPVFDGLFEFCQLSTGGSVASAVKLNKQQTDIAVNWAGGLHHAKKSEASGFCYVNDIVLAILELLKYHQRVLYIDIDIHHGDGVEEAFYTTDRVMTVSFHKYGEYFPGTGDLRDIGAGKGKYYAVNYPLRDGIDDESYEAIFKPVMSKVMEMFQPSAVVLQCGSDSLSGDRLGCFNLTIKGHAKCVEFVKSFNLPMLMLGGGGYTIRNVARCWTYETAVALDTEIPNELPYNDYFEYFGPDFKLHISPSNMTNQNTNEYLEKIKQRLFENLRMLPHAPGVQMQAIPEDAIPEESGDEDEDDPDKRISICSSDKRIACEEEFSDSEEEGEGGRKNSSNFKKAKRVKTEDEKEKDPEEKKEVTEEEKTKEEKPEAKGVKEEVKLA
Test [6] deals with Histone deacetylase 3 (Homo sapiens, UniProt O15379). As to the kind of experiment: Inhibition of HDAC3 (unknown origin) using p53 residues 379 to 382 [RHKK(Ac)] as fluorogenic substrate assessed as residual activity at 1.23 x 10^-7M (reference value: 103.08%). To be noted: dose 1.23 10^-7M.
Histone deacetylase 3, sequence (O15379 whole entry, the tested form may be a part): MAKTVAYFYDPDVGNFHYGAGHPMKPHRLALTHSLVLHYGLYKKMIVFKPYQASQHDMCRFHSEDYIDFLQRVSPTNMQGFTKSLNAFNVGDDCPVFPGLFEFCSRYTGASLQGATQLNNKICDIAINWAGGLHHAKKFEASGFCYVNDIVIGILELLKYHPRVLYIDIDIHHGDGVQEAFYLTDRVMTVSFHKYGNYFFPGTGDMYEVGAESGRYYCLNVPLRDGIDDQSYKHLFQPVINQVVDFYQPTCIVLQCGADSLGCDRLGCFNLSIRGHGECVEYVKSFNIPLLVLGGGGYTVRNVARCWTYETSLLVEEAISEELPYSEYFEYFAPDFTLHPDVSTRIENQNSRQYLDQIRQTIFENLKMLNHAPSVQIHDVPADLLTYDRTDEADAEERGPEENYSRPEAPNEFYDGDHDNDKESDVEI
The target of test [7] is T3, Histone deacetylase 8 (Homo sapiens) (UniProt Q9BY41).
T3 sequence (whole entry): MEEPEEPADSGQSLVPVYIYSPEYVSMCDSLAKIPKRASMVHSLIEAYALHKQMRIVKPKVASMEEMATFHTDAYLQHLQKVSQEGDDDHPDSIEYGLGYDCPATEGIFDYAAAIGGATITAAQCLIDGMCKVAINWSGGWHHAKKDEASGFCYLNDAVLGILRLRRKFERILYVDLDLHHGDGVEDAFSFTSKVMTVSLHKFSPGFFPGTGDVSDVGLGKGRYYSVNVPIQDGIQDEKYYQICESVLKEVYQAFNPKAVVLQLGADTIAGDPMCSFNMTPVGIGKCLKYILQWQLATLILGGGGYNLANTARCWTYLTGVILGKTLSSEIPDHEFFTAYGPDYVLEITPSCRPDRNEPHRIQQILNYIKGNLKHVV
As to the kind of experiment: Inhibition of HDAC8 (unknown origin) assessed as residual activity at 3.33 x 10^-6M (reference value: 100%). To be noted: dose 3.33 10^-6M.

In the case of `NC(=O)c1cccc2[nH]c(-c3ccc(NCc4ccc(C(=O)Nc5ccccc5N)cc4)cc3)nc12`, in test [1], the pIC50 was < 5.00. The Activity in test [2] is 92%; in test [3], 101%; in test [5] it was 31.3%; in test [6], 84.1%; in test [7], 96.9%. In test [4], the result was Active.
